Assay results taken from patent US20120171123A1, “USES AND COMPOSITIONS FOR TREATMENT OF RHEUMATOID ARTHRITIS” (priority 2006, published 2012).
Where “and” joins values, the source holds several entries; their conditions need not be identical. Equal entries are not always repeated.

What was measured:
[1] = tested on: patients with long-standing RA who had inadequate responses to MTX; assay: Study 1: ACR20/50/70 response; assay type: in vivo, human
Method: Patients were grouped into three cohorts based on baseline CRP concentrations: low (<1 mg/dL); intermediate (1-4 mg/dL); and high (>4 mg/dL). Analyses were further conducted in two categories of patients according to their change in CRP concentrations at Week 12: those with a ≧20% decrease in CRP from baseline; or those with a <20% decrease in CRP from baseline. The following efficacy and radiographic measures were analyzed at Week 52 in the three baseline CRP categories and in the two Week 12 change in CRP categories: DAS28, ACR 20/50/70, Health assessment questionnaire (HAQ), and Total Sharp score (TSS).
Two readers assessed X-rays performed at baseline (start of RCT), 1 year (end of RCT), and 3 years (post 2 years OLE). Changes from baseline in Total Sharp Score (TSS), Joint Erosions (JE), and Joint Space Narrowing (JSN) were calculated. ACR 20, 50, and 70 response rates, as well as TJC and SJC, were also measured.

[2] = tested on: MTX-naïve adult patients with active, early RA (<3 years); assay: Study J: clinical remission by DAS28<2.6; assay type: in vivo, human
Method: Clinical remission, defined as DAS28<2.6, is described below in Table 25.
Secondary endpoints included DAS28<2.6 at year 1 and Major Clinical Response (MCR=ACR70 response for ≧6 continuous months during a 2-year period).
At 1 and 2 years, the American College of Rheumatology (ACR) responses (ACR20, ACR50, and ACR70), the Disease Activity Score 28 (DAS28), and the change (Δ) in Total Sharp Score (TSS) were determined for all patients. Results were analyzed for the intention-to-treat (ITT) population using imputation for missing data. Clinical remission was defined as DAS28<2.6. The mean ΔTSS values at 1 year and 2 years (N=791) were determined for patients in each ACR response category (ACR20/50/70) and for patients with DAS28<2.6

[3] = tested on: MTX-naïve adult patients with active, early RA (<3 years); assay: Study J: CRP normalization; assay type: in vivo, human; details: for Patient numbers: CRP Abnormal at Baseline, Abnormal at 1 Year / Patient numbers: CRP Normal at Baseline, Abnormal at 1 Year: Abnormal CRP >0.8 mg/dL; for Patient numbers: CRP Abnormal at Baseline, Normal at 1 Year / Patient numbers: CRP Normal at Baseline, Normal at 1 Year: Normal CRP ≦0.8 mg/dL
Method: Baseline demographics and clinical characteristics of the patients enrolled in this study are described in Example 7. […] After 1 and 2 years of therapy, the percentages of patients with ACR90 responses, TJC=0, SJC=0, HAQ=0, morning stiffness=0 minutes, and normal CRP were determined. Data are from the intention-to-treat (ITT) population with imputation used for missing values. Results were compared with the percentages of patients who achieved DAS28<2.6 or a Major Clinical Response (MCR).
Radiographic progression was assessed by mean change from baseline in Total Sharp Score (TSS) and stratified into those with (ΔTSS>0.5) and without (Δ≦TSS 0.5). Patients were categorized as either having radiographic progression at 1 year (ΔTSS>0.5) or not (Δ≦TSS 0.5). A logistic regression model was used to identify predictors of radiographic disease progression by testing several baseline characteristics, including age, disease duration, RF status, TJC, SJC, joint erosions, and CRP. For analyses of CRP, patients were categorized as normal (CRP≦0.8 mg/dL) or abnormal (CRP>0.8 mg/dL).

[4] = tested on: MTX-naïve adult patients with early RA (<3 years); assay: Study J: escalation of injectable medicine from eow to weekly dosing; assay type: in vivo, human; details: for ACR20 following dosage escalation, % of all patients in arm / ACR70 following dosage escalation, % of all patients in arm / DAS28 < 2.6 following dosage escalation, % of all patients in arm / ACR60 following dosage escalation, % of all patients in arm: patients with no prior ACR20 response, NRI; for ACR50, % of responders / ACR70, % of responders: patients whose dosages of adalimumab or placebo injections were escalated; for patients who increased injectable medication to weekly: during year 1 (placebo injections in MTX arm)
Method: Study J was a 2-year, double-blind, active comparator-controlled, Phase III study. […] In patients receiving ADA+MTX or MTX monotherapy, the 7.5 mg MTX weekly dosage increased to 20 mg over 8 weeks, as tolerated and as needed. Monotherapy patients received either placebo pills (adalimumab arm) or placebo injections (MTX arm). Efficacy outcomes measured included ACR response, DAS28 remission, major clinical response, and radiographic change from baseline.
MTX optimization was required before starting weekly injections (to 20 mg weekly, maximum). Once initiated, weekly dosing of injectable medicine was to be maintained until end of study. Criteria for identification of dosage escalators were a sequence of 4 consecutive injections for which the interval for every two consecutive injections was ≦10 days, and/or that the date of escalation, defined as the second of the 4 injections, had to be on or after Week 16 in Year 1. Three dosage escalator categories were defined, based on best ACR response rate achieved any time prior to escalation: Group A=ACR non-responders (never achieved ACR20 prior to dosage escalation), Group B=Partial responders (achieved ACR20 or ACR50 at least once prior to escalation, but never ACR70), and Group C=ACR70 responders (achieved ACR70 at least once prior to escalation). Data are from the intention-to-treat (ITT) population, with missing data analyzed by non-responder imputation (NRI) for clinical measures and by linear imputation for total Sharp scores (TSS).

[5] = tested on: MTX-naïve adult patients with active, early RA (<3 years); assay: Study J: treatment emergent adverse events; details: 2 years
Text: Study J was a 2-year randomized controlled trial in patients with early RA (disease duration<3 years). Participants in these clinical trials and in other phase Mb studies, were routinely evaluated for safety. Reports of serious adverse events (SAE) were tabulated using MedDRA coding by events per 100-patient-years (E/100PY). SAE rates were compared with respect to disease duration between patients with early (<3 yrs) and long-standing RA.

[6] = week 52, baseline CRP 1-4 mg/dL

| Compound | clinical remission, DAS28 < 2.6 ([2]; week 52 (1 year)) | clinical remission, DAS28 < 2.6 ([2]; week 104 (2 years)) | Normal CRP (≦0.8 mg/dL) ([3]; 1 year) [% patients] | Normal CRP (≦0.8 mg/dL) ([3]; 2 years) [% patients] | Patient numbers: CRP Abnormal at Baseline, Abnormal at 1 Year [3] | Patient numbers: CRP Normal at Baseline, Abnormal at 1 Year [3] | Patient numbers: CRP Abnormal at Baseline, Normal at 1 Year [3] | Patient numbers: CRP Normal at Baseline, Normal at 1 Year [3] | ACR20 following dosage escalation, % of all patients in arm ([4]; 1 year) [%] | ACR70 following dosage escalation, % of all patients in arm ([4]; 1 year) | DAS28 < 2.6 following dosage escalation, % of all patients in arm ([4]; 1 year) [%] | No radiographic progression, % of patients ([4]; 2 years, eow dosing) [%] | ACR20 following dosage escalation, % of all patients in arm ([4]; 2 years) [%] | ACR70 following dosage escalation, % of all patients in arm ([4]; 2 years) [%] | DAS28 < 2.6 following dosage escalation, % of all patients in arm ([4]; 2 years) [%] | No radiographic progression, % of patients ([4]; 2 years, weekly dosing) [%] | ACR50, % of responders ([4]; Year 1) [%] | ACR70, % of responders ([4]; Year 1) [%] | ACR50, % of responders ([4]; Year 2) [%] | ACR70, % of responders ([4]; Year 2) [%] | other results |
| --- | --- | --- | --- | --- | --- | --- | --- | --- | --- | --- | --- | --- | --- | --- | --- | --- | --- | --- | --- | --- | --- |
| CN(Cc1cnc2nc(N)nc(N)c2n1)c1ccc(C(=O)N[C@@H](CCC(=O)O)C(=O)O)cc1 [mtx alone, methotrexate] | 21 % of patients | 25 % of patients | 35 | 29 | 75 | 7 | 84 | 21 | 3.5 | 0.8% | 0.0 | 36.6 | 3.6 | 1.2 | 0.8 | 21.2 | 17 | 8 | 21 | 12 | ACR20 [1, 6]: 36 % responders; ACR50 [1, 6]: 18 % responders; ACR70 [1, 6]: 9 % responders; ACR20 ([1]; week 52, baseline CRP <1 mg/dL): 30 % responders; ACR50 ([1]; week 52, baseline CRP <1 mg/dL): 13 % responders; ACR70 ([1]; week 52, baseline CRP <1 mg/dL): 6 % responders; ACR20 ([1]; week 52, baseline CRP >4 mg/dL): 47 % responders; ACR50 ([1]; week 52, baseline CRP >4 mg/dL): 0 % responders; ACR70 ([1]; week 52, baseline CRP >4 mg/dL): 0 % responders; patients with abnormal baseline CRP that became normal ([3]; 1 year, listed as MTX Alone): 53% (n = 159); patients with abnormal baseline CRP that became normal ([3]; 1 year, listed as MTX alone): 53%; patients who increased injectable medication to weekly [4]: 20%; All infectious AE [5]: 119 Events/100-PY; Demyelination [5]: 0.0 Events/100-PY; Lymphoma [5]: 0.2 Events/100-PY; Malignancies [5]: 0.9 Events/100-PY; Pancytopenia [5]: 0.2 Events/100-PY; Serious AE [5]: 15.9 Events/100-PY; Serious Infectious AE [5]: 1.6 Events/100-PY; Tuberculosis [5]: 0.0 Events/100-PY |
| adalimumab: human anti-TNF mAb (HUMIRA, Abbott Laboratories), described in U.S. Pat. No. 6,090,382 as D2E7 | 23 % of patients | 25 % of patients | 34 | 34 | 72 | 4 | 78 | 33 | 1.8 | 0 (0) % | 0.4 | 48.8 | 2.6 | 0.4 | 0.4 | 31.9 | 17 | 6 | 16 | 10 | ACR20 ([1]; month 12): 69%; ACR50 ([1]; month 12): 48%; ACR70 ([1]; month 12): 26%; ACR20 ([1]; month 24): 63%; ACR50 ([1]; month 24): 43%; ACR70 ([1]; month 24): 28%; ACR20 ([1]; month 36): 58%; ACR50 ([1]; month 36): 42%; ACR70 ([1]; month 36): 24% and 23%; patients with abnormal baseline CRP that became normal ([3]; 1 year, listed as Adalimumab Alone): 52% (n = 150); ACR60 following dosage escalation, % of all patients in arm ([4]; 1 year): 1.6%; ACR60 following dosage escalation, % of all patients in arm ([4]; 2 years): 0.4%; patients who increased injectable medication to weekly [4]: 25%; Tuberculosis [5]: 0.0 Events/100-PY |
